In brackets after ≈: the same amount, converted by molar mass. Several values for one entry are separate records, joined by “and”; a condition that tells them apart may be missing. Equal entries are not always repeated. Where two headings read alike, the source gives them in different places.
Experiments:
[1] = Microsomal stability, human; assay type: in vitro ADME
Summary of the method: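 1 µmol/l cpd + 0.5 mg/ml microsomes, Tris-HCl 100 mM pH 7.5 / MgCl2 6.5 mM / NADPH 1 mM, 37 °C. Timed acetonitrile quench, spin, supernatant by HPLC-MS/MS. t1/2 from first-order decay → clearance %Qh, well-stirred model.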

Mtb (moxR) FNDR-M1 = assay: microbe, parasite or virus in culture; assay type: cell-based
Enterococcus faecium = assay: MIC ESKAPES panel, Enterococcus faecium; assay type: cell-based
Procedure: (§1) Minimum inhibitory concentration (MIC) against ESKAPES panel of Gram positive and Gram negative pathogens (Enterococcus faecium, Staphylococcus aureus, Klebsiella pneumoniae, Acinetobacter baumannii, Pseudomonas aeruginosa, Enterobacter cloacae and Salmonella typhimurium [ESKAPES panel]) were determined at the FNDR by the standard broth dilution method [CLSI, M100]. […] Mueller Hinton broth (MHB) medium was used to grow ESKAPES panel strains. The individual cultures were added as 200 μL (inoculum of 3–7 × 10^5 cfu/ml) to the respective assay plates in each well to all columns, except the media control (200 μL of medium). […] The assay plates were incubated at 37 °C, and the results were noted on the 2nd day as turbidometric readout. The clear wells indicated inhibition of growth, while the turbid wells indicated uninhibited growth.

Msm 700084 = assay: microbe, parasite or virus in culture; assay type: cell-based; conditions: Mycolicibacterium smegmatis, 700084; read-out: MIC Msm 700084
[2] = biological target: His6-tagged ClpC1-NTD substrate, M. smegmatis ClpC1P1P2 (UniProt A0R574+P9WPC9); assay: biochemical; assay type: biochemical; conditions: for % Response / ClpC1-NTD peak area: Figure 4a source data, well replicates
[3] = test system: non-replicating cells of Mtb H37Rv; assay type: cell-based, Mycobacterium tuberculosis; conditions: for Supplementary Figure 2 dose-response value, starvation-induced non-replicating H37Rv cells: three replicate columns
Klebsiella pneumoniae = assay: MIC ESKAPES panel, Klebsiella pneumoniae; assay type: cell-based
Procedure: as §1

in vivo = assay type: in vivo, BALB/cAnNCrl mice; conditions: for Plasma concentration 6 h / Plasma concentration 24 h / AUC0-inf/Dose / AUC0-t/Dose / CL / CL PL QH / Cmax/Dose / MRT / Plasma concentration 0.1 h / Plasma concentration 0.5 h / Plasma concentration 1 h / Plasma concentration 2 h / Plasma concentration 4 h / Vss / t1/2: iv bolus; for Plasma concentration 6 h / Plasma concentration 24 h: BLOQ <1.00 nmol/l
Procedure: The in-life experimental procedures were conducted in strict compliance with German and European animal welfare legislation in an AAALAC-accredited facility. Male BALB/cAnNCrl mice (Charles River Laboratories Research Models and Services, 97633 Sulzfeld, Germany) were used. Animals were 9 weeks old at dosing with a body weight of 21.6–24.3 g. Animals were delivered free of pathogens according to FELASA recommendations with a health certificate provided by the breeder. Upon receipt, the state of health and sex was checked. Animals acclimatized for at least 5 days before the commencement of the in-life phase. During acclimation, animals were group-housed in individually ventilated cages, on birch wood granulate bedding with species-specific enrichment (nesting material, mouse igloo, gnawing wood). During experimental conduct, animals were housed in conventional cages with elevated grid floors. Grid floor was used to avoid contamination with test item material excreted via urine and feces and subsequent reuptake during fur grooming. No bedding and enrichment were provided except a cage divider, which can be used as a shelter. Animals always had unlimited access to food and water and received a pelleted, total pathogen-free maintenance diet and tap drinking water, sterilized by filter.
In case of incomplete dissolution, the formulation was filtered at 40 °C (non-pyrogenic sterile-R filter, 0.2 µm). All formulations were stirred warm until administration. Actual test item content was determined bioanalytically.
Male BALB/cAnNCrl mice (n = 3 per test item and administration route) received a bolus dose of the formulated test item(s) (1 mg/kg iv, 30 mg/kg po) at t = 0 h, and whole blood samples were collected subsequently (35 µl at 0.1 (iv) / 0.25 (po), 0.5, 1, 2, 4, 6 h; 600 µl at sacrifice after 24 h). Animals were euthanized by exsanguination in deep isoflurane anesthesia. Whole blood samples were immediately stored on ice at about 4 °C. Plasma was separated by centrifugation at approximately 10,000 × g for 5 m at +4 °C. Centrifugation of each blood sample was started within 10 m after collection. A single aliquot of at least 15 µL of plasma was prepared and immediately stored at −20 ± 5 °C.
Sample proteins were precipitated with ACN (1 + 12, v/v) containing internal standard, and supernatants analyzed by quantitative UPLC-MS/MS: Phenomenex Luna Omega C18, 2.1 × 50 mm, 1.6 µm, 40 °C, gradient between 10% - 90% ACN with 0.1% formic acid. LogD determination: Lipophilicity of the test items, expressed as chromLogD7.5, was assessed by measuring their chromatographic retention times on C18-material. The chromatographic retention versus logD7.5 values of a series of thirteen n-alkan-2-ones (2-butanone – 2-hexadecanone) served as lipophilicity calibration.

[4] = dose-normalized, mice, 1 mg kg-1 iv bolus
[5] = individual animals 1-3, listed as 8 (UdSBI-0545)

His6-tagged ClpC1-NTD substrate, M. smegmatis ClpC1P1P2, sequence (P9WPC9 1-156, looked up, natural form): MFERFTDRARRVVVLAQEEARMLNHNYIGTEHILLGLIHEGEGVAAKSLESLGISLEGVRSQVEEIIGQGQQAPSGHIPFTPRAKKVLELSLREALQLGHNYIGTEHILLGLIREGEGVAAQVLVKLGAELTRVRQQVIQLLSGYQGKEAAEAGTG
His6-tagged ClpC1-NTD substrate, M. smegmatis ClpC1P1P2, sequence (A0R574 whole entry): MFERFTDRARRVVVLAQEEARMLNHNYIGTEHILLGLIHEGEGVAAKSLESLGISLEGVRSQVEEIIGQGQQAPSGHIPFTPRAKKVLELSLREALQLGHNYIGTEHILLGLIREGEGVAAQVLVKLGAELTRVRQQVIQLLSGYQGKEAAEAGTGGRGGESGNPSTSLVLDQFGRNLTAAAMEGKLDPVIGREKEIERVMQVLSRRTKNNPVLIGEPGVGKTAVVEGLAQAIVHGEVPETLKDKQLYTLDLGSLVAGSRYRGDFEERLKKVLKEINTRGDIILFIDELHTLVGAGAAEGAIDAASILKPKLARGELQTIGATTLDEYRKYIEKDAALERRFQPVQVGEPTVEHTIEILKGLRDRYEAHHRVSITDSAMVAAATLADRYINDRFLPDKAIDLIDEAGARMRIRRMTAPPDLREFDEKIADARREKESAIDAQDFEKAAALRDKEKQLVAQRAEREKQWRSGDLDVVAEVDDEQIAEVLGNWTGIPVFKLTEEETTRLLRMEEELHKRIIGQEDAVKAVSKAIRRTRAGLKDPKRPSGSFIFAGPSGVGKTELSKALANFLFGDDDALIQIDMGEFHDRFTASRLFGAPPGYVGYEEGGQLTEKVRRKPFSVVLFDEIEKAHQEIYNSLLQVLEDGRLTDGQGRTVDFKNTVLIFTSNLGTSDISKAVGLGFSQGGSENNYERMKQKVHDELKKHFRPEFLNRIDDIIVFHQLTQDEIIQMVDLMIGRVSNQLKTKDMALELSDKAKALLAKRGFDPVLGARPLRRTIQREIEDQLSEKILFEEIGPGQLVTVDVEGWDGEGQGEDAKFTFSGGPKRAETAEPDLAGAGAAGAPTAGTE

COC(c1ccccc1)C1NC(=O)C(C)NC(=O)C(CC(C)CO)N(C)C(=O)C(Cc2cn(Cc3cn(CCOCCOCCOCCOCCn4cc(Cn5cc(CC6NC(=O)C(C(C)C)NC(=O)C(CC(C)C)N(C)C(=O)C(C(C)C)NC(=O)C(C(OC)c7ccccc7)NC(=O)C(C)NC(=O)C(CC(C)CO)N(C)C6=O)c6ccccc65)nn4)nn3)c3ccccc23)NC(=O)C(C(C)C)NC(=O)C(CC(C)C)N(C)C(=O)C(C(C)C)NC1=O (stereo not drawn) [Compound 8]
Microsomal Stability Human QH ([1]; Human): >88.4 >88.4 >88.4% | Microsomal Stability Human ([1]; clearance in microsomes): > 88 %Qh | MIC (Mtb (moxR) FNDR-M1; M. tuberculosis FNDR-M1, single well replicates): 0.195 µM (≈ 0.423 µg/mL) | MIC (Mtb (moxR) FNDR-M1; Mycobacterium tuberculosis, M. tuberculosis FNDR-M1, single well replicates): 0.195 µM (≈ 0.423 µg/mL) | MIC (Mtb (moxR) FNDR-M1; Mycobacterium tuberculosis, Mtb (moxR) FNDR-M1, mean ± SD, n = 3 well replicates): 0.2 µM (≈ 0.434 µg/mL) | MIC (Enterococcus faecium; Enterococcus faecium, Gram positive, n = 3 well replicates): > 50 µM | MIC (Enterococcus faecium; Enterococcus faecium, Gram-Positive Bacteria, replicates 1-3): > 109 µg/mL | MIC (Enterococcus faecium; Gram-Positive Bacteria, replicates 1-3, listed as 8 (UdSBI-0545)): >50 µM | MIC (Msm 700084): 8.3 ± 5.1 µM (≈ 18 µg/mL) | DC50 ([2]; Msm, Measurement 1-6, read-out: DC50, single measurements): 9 µM and 8.5 µM and 6 µM and 8.1 µM and 8.2 µM | DC50 ([2]; cell-free degradation of ClpC1-NTD, 90 min, read-out: DC50 M.smegmatis ClpC1P1P2 Mean): 8 µM | % Response ([2]; conc. 0.4 µM): 120.356% and 117.751% and 102.838% and 93.7015% and 104.532% and 103.754% and 118.347% and 117.353% and 124.609% | ClpC1-NTD peak area ([2]; conc. 0.4 µM): 613438 and 713203 and 1462174 and 1713249 and 1751036 and 1183458 and 1105910 and 1047700 and 547599 | % Response ([2]; conc. 33.3 µM): 25.9293% and 29.5058% and 21.1338% and 16.911% and 37.0492% and 22.8094% and 15.8145% and 16.4069% and 19.2475% | ClpC1-NTD peak area ([2]; conc. 33.3 µM): 245614 and 155160 and 213594 and 218458 and 306322 and 219308 and 255600 and 176271 and 124945 | % Response ([2]; conc. 100.0 µM): 31.4886% and 23.4001% and 28.8941% and 17.4698% and 14.335% and 19.5877% and 11.6161% and 9.907% and 14.2139% | ClpC1-NTD peak area ([2]; conc. 100.0 µM): 99143.4 and 153042 and 198962 and 150433 and 187091 and 243688 and 174896 and 223232 and 140724 | Supplementary Figure 2 dose-response value, starvation-induced non-replicating H37Rv cells ([3]; Conc. 0.0488281 µM): 101.903 and 93.5529 and 95.5846 | Supplementary Figure 2 dose-response value, starvation-induced non-replicating H37Rv cells ([3]; Conc. 0.195312 µM): 93.6246 and 84.7332 and 86.7409 | Supplementary Figure 2 dose-response value, starvation-induced non-replicating H37Rv cells ([3]; Conc. 0.390625 µM): 90.2545 and 83.1636 and 86.2868 | Supplementary Figure 2 dose-response value, starvation-induced non-replicating H37Rv cells ([3]; Conc. 0.78125 µM): 91.9834 and 86.6134 and 81.2993 | Supplementary Figure 2 dose-response value, starvation-induced non-replicating H37Rv cells ([3]; Conc. 1.5625 µM): 90.366 and 86 and 85.5618 | Supplementary Figure 2 dose-response value, starvation-induced non-replicating H37Rv cells ([3]; Conc. 3.125 µM): 93.9114 and 69.2927 and 87.5137 | Supplementary Figure 2 dose-response value, starvation-induced non-replicating H37Rv cells ([3]; Conc. 6.25 µM): 87.458 and 76.4871 and 82.7732 | Supplementary Figure 2 dose-response value, starvation-induced non-replicating H37Rv cells ([3]; Conc. 25 µM): 86.1354 and 89.2267 and 87.4022 | Supplementary Figure 2 dose-response value, starvation-induced non-replicating H37Rv cells ([3]; Conc. 50 µM): 91.1707 and 85.8088 and 84.3747 | Supplementary Figure 2 dose-response value, starvation-induced non-replicating H37Rv cells ([3]; Conc. 100 µM): 92.3658 and 81.0443 and 90.6608 | inhibitory activity on non-growing Mtb H37Rv ([3]; starvation for three weeks, result in words): lost their inhibitory activity | MIC (Klebsiella pneumoniae; Gram-Negative Bacteria, replicates 1-3, listed as 8 (UdSBI-0545)): >50 µM | MIC (Klebsiella pneumoniae; Klebsiella pneumoniae, Gram negative, n = 3 well replicates): > 50 µM | MIC (Klebsiella pneumoniae; Klebsiella pneumoniae, Gram-Negative Bacteria, replicates 1-3): > 109 µg/mL | AUC (in vivo; [4]): 8580 h nM/(nmol kg-1) | Cmax (in vivo; [4]): 6710 nM/(nmol kg-1) | Plasma concentration 6 h (in vivo; [5]): 90.8 nM and 118 nM and 77.8 nM | Plasma concentration 24 h (in vivo; [5]): 14.8 nM and 18.2 nM and 13.3 nM | AUC0-inf/Dose (in vivo; [5]): 7860 h nM/(nmol kg-1) and 10400 h nM/(nmol kg-1) and 8420 h nM/(nmol kg-1) | AUC0-t/Dose (in vivo; [5]): 7540 h nM/(nmol kg-1) and 10000 h nM/(nmol kg-1) and 8140 h nM/(nmol kg-1) | CL (in vivo; [5]): 2.1 mL/min/kg and 1.6 mL/min/kg and 2.0 mL/min/kg | CL PL QH (in vivo; [5]): 2.4% and 1.8% and 2.2% | Cmax/Dose (in vivo; [5]): 5300 nM/(nmol kg-1) and 7400 nM/(nmol kg-1) and 7420 nM/(nmol kg-1) | MRT (in vivo; [5]): 4.5 h and 4.3 h and 3.8 h | Plasma concentration 0.1 h (in vivo; [5]): 2440 nM and 3410 nM and 3420 nM | Plasma concentration 0.5 h (in vivo; [5]): 1650 nM and 1900 nM and 1850 nM | Plasma concentration 1 h (in vivo; [5]): 655 nM and 1140 nM and 855 nM | Plasma concentration 2 h (in vivo; [5]): 328 nM and 402 nM and 307 nM | Plasma concentration 4 h (in vivo; [5]): 110 nM and 144 nM and 117 nM | Vss (in vivo; [5]): 0.6 L/kg and 0.4 L/kg and 0.5 L/kg | t1/2 (in vivo; [5]): 6.9 h and 6.7 h and 6.6 h | AUC0-inf/Dose (in vivo; mice, Mean): 8900 h nM/(nmol kg-1) | AUC0-t/Dose (in vivo; mice, Mean): 8580 h nM/(nmol kg-1) | CL (in vivo; mice, Mean): 1.9 mL/min/kg | CL PL QH (in vivo; mice, Mean): 2.1% | Cmax/Dose (in vivo; mice, Mean): 6710 nM/(nmol kg-1) | MRT (in vivo; mice, Mean): 4.2 h | Plasma concentration 0.1 h (in vivo; mice, Mean): 3090 nM | Plasma concentration 0.5 h (in vivo; mice, Mean): 1800 nM | Plasma concentration 1 h (in vivo; mice, Mean): 883 nM | Plasma concentration 2 h (in vivo; mice, Mean): 346 nM | Plasma concentration 4 h (in vivo; mice, Mean): 124 nM | Vss (in vivo; mice, Mean): 0.5 L/kg | t1/2 (in vivo; mice, Mean): 6.7 h | Plasma concentration 6 h (in vivo; mice, Mean): 95.5 nM | Plasma concentration 24 h (in vivo; mice, Mean): 15.4 nM | VSS (in vivo; mice, 1 mg kg-1 iv bolus): 0.48 L/kg | Cl (in vivo; plasma clearance, mice, 1 mg kg-1 iv bolus): 1.90 mL/min/kg | T1/2 (in vivo; plasma, mice, 1 mg kg-1 iv bolus): 6.74 h

From article PMC10914731, “Homo-BacPROTAC-induced degradation of ClpC1 as a strategy against drug-resistant mycobacteria” (Nature Communications, 2024)
